From patent publication US20250197376A1, “PYRAZINE AMIDE DERIVATIVES” (Novartis AG, priority 2022, published 2025)

test system: 3D7 P. falciparum strain; experiment: P. falciparum 3D7 parasite proliferation assay (SYBR Green); assay type: cell-based; details: Plasmodium falciparum, Erythrocyte; 3D7 P. falciparum infected human erythrocytes, 72 hours, SYBR Green fluorescence; read-out: Pf3D7 Activity
Procedure: The following assay illustrates the invention without in any way limiting the scope of the invention. This parasite proliferation assay measures the increase in parasite DNA content using a DNA intercalating dye, SYBR Green®. 3D7 P. falciparum strain is grown in complete culturing media until parasitemia reaches 3% to 8% with O+ human erythrocytes. 20 μl of screening media is dispensed into 384 well assay plates. 50 nl of compounds of the invention (in DMSO), including antimalarial controls (mefloquine, pyrimethamine and artemisinin), are then transferred into the assay plates, as well as DMSO alone to serve as a negative control for inhibition. Then 30 μl of a suspension of a 3D7 P. falciparum infected erythrocytes in screening media is dispensed into the assay plates such that the final hematocrit is 2.5% with a final parasitemia of 0.3%. The plates are placed in a 37° C. incubator for 72 hours in a low oxygen environment containing 93% N2, 4% CO2, and 3% O2 gas mixture. 10 μl of lysis buffer (saponin, triton-X, EDTA) containing a 10× solution of SYBR Green […] in RPMI media is dispensed into the plates. The plates are lidded and kept at room temperature overnight for the lysis of the infected red blood cells. The fluorescence intensity is measured (excitation […], emission 530 nm) using the Envision™ system (Perkin Elmer). The percentage inhibition of 50%, EC50, is calculated for each compound.

Q: Which EC50 does the source give for `CC(C)(N)CNC(=O)c1cncc(-c2cc3cc(OC(F)(F)F)ccc3[nH]2)n1` [Example 2, N-(2-Amino-2-methylpropyl)-6-(5-(trifluoromethoxy)-1H-indol-2-yl)pyrazine-2-carboxamide] here?
A: 10 to 100 nM

Q: For `COC(=O)c1ccc2cc(-c3cncc(C(=O)NCC(C)(C)N)n3)[nH]c2c1` [Example 29, Methyl 2-(6-((2-amino-2-methylpropyl)carbamoyl)pyrazin-2-yl)-1H-indole-6-carboxylate], which EC50 is on record?
A: 10 to 100 nM

Q: With `CC(C)(N)CNC(=O)c1cncc(-c2cc3cccc(F)c3[nH]2)n1` [Example 25, N-(2-amino-2-methylpropyl)-6-(7-fluoro-1H-indol-2-yl)pyrazine-2-carboxamide] as the compound, how does the EC50 read?
A: 10 to 100 nM

Q: For `CC(C)(N)CNC(=O)c1cncc(-c2cc3ccc(C#N)cc3[nH]2)n1` [Example 34, N-(2-amino-2-methylpropyl)-6-(6-cyano-1H-indol-2-yl)pyrazine-2-carboxamide], which EC50 is on record?
A: > 100 nM

Q: How did the EC50 turn out when `Cc1c(-c2cncc(C(=O)N[C@H]3CCC[C@@H]3N)n2)[nH]c2cc(Cl)c(F)cc12` [Example 77, N-((1S,2S)-2-Aminocyclopentyl)-6-(6-chloro-5-fluoro-3-methyl-1H-indol-2-yl)pyrazine-2-carboxamide] was run?
A: < 10 nM

Q: Which EC50 does the source give for `Cc1c(-c2cncc(C(=O)NC34CC(N)(C3)C4)n2)[nH]c2ccccc12` [Example 87, N-(3-aminobicyclo[1.1.1]pentan-1-yl)-6-(3-methyl-1H-indol-2-yl)pyrazine-2-carboxamide] here?
A: 10 to 100 nM

Q: `Cc1cc2[nH]c(-c3cncc(C(=O)NCC(C)(C)N)n3)c(C)c2s1` [Example 73, N-(2-amino-2-methylpropyl)-6-(2,6-dimethyl-4H-thieno[3,2-b]pyrrol-5-yl)pyrazine-2-carboxamide] was tested. Which EC50 did it give?
A: 10 to 100 nM

Q: Which EC50 does the source give for `Cc1c(-c2cncc(C(=O)N[C@H]3CC[C@H](N)CC3)n2)[nH]c2ccccc12` [Example 97, N-((1r,4r)-4-aminocyclohexyl)-6-(3-methyl-1H-indol-2-yl)pyrazine-2-carboxamide] here?
A: > 100 nM

Q: Which EC50 does the source give for `Cc1c(-c2cncc(C(=O)NCCC(C)(C)N)n2)[nH]c2ccc(OC(F)(F)F)cc12` [Example 59, N-(3-amino-3-methylbutyl)-6-(3-methyl-5-(trifluoromethoxy)-1H-indol-2-yl)pyrazine-2-carboxamide] here?
A: < 10 nM

Q: Which EC50 does the source give for `Cc1c(-c2cncc(C(=O)N(C)CC(C)(C)N)n2)[nH]c2ccc(OC(F)(F)F)cc12` [Example 62, N-(2-amino-2-methylpropyl)-N-methyl-6-(3-methyl-5-(trifluoromethoxy)-1H-indol-2-yl)pyrazine-2-carboxamide] here?
A: 10 to 100 nM

Q: `Cc1c(-c2cncc(C(=O)NCCN)n2)[nH]c2ccccc12` [Example 86, N-(2-aminoethyl)-6-(3-methyl-1H-indol-2-yl)pyrazine-2-carboxamide] was tested. Which EC50 did it give?
A: 10 to 100 nM

Q: How did the EC50 turn out when `Cc1c(-c2cncc(C(=O)NCC(C)(C)N)n2)[nH]c2ccc(S(C)(=O)=O)cc12` [Example 75, N-(2-Amino-2-methylpropyl)-6-(3-methyl-5-(methylsulfonyl)-1H-indol-2-yl)pyrazine-2-carboxamide] was run?
A: > 100 nM

Q: How did the EC50 turn out when `CC(C)(N)CNC(=O)c1cncc(-c2cc3cc(F)cc(F)c3[nH]2)n1` [Example 24, N-(2-amino-2-methylpropyl)-6-(5,7-difluoro-1H-indol-2-yl)pyrazine-2-carboxamide] was run?
A: 10 to 100 nM

Q: `CC(C)(N)CNC(=O)c1cncc(-c2cc3ccc(OC(F)(F)F)cc3[nH]2)n1` [Example 47, N-(2-amino-2-methylpropyl)-6-(6-(trifluoromethoxy)-1H-indol-2-yl)pyrazine-2-carboxamide] was tested. Which EC50 did it give?
A: 10 to 100 nM

Q: `Cc1c(-c2cncc(C(=O)NCC(C)(C)N)n2)[nH]c2ccc(OC(F)(F)F)cc12` [Example 5, N-(2-amino-2-methylpropyl)-6-(3-methyl-5-(trifluoromethoxy)-1H-indol-2-yl)pyrazine-2-carboxamide] was tested. Which EC50 did it give?
A: < 10 nM

Q: `Cc1c(-c2cncc(C(=O)NCC3(N)CC3)n2)[nH]c2cc(Cl)c(F)cc12` [Example 81, N-((1-aminocyclopropyl)methyl)-6-(6-chloro-5-fluoro-3-methyl-1H-indol-2-yl)pyrazine-2-carboxamide] was tested. Which EC50 did it give?
A: 10 to 100 nM

Q: How did the EC50 turn out when `CCc1c(-c2cncc(C(=O)NCC(C)(C)N)n2)[nH]c2ccccc12` [Example 50, N-(2-amino-2-methylpropyl)-6-(3-ethyl-1H-indol-2-yl)pyrazine-2-carboxamide] was run?
A: 10 to 100 nM

Q: With `CC(C)(N)CNC(=O)c1cncc(-c2cc3cnc(Cl)cc3[nH]2)n1` [Example 40, N-(2-amino-2-methylpropyl)-6-(6-chloro-1H-pyrrolo[3,2-c]pyridin-2-yl)pyrazine-2-carboxamide] as the compound, how does the EC50 read?
A: > 100 nM

Q: Which EC50 does the source give for `CC(C)(N)CNC(=O)c1cncc(-c2cc3cc(F)ccc3[nH]2)n1` [Example 27, N-(2-amino-2-methylpropyl)-6-(5-fluoro-1H-indol-2-yl)pyrazine-2-carboxamide] here?
A: 10 to 100 nM

Q: Which EC50 does the source give for `Cc1c(-c2cncc(C(=O)NCC(C)(C)N)n2)[nH]c2ccc(S(F)(F)(F)(F)F)cc12` [Example 3, N-(2-amino-2-methylpropyl)-6-(3-methyl-5-(pentafluoro-λ^6-sulfaneyl)-1H-indol-2-yl)pyrazine-2-carboxamide] here?
A: < 10 nM

Q: `CC(C)(N)CNC(=O)c1cncc(-c2[nH]c3ccccc3c2C(F)(F)F)n1` [Example 54, N-(2-amino-2-methylpropyl)-6-(3-(trifluoromethyl)-1H-indol-2-yl)pyrazine-2-carboxamide] was tested. Which EC50 did it give?
A: > 100 nM

Q: `Cc1c(-c2cncc(C(=O)NCC(C)(C)N)n2)[nH]c2ccc(Br)cc12` [Example 74, N-(2-Amino-2-methylpropyl)-6-(5-bromo-3-methyl-1H-indol-2-yl)pyrazine-2-carboxamide] was tested. Which EC50 did it give?
A: < 10 nM

Q: Which EC50 does the source give for `CN(C)C(=O)c1cc2[nH]c(-c3cncc(C(=O)NCC(C)(C)N)n3)cc2s1` [Example 109, 5-(6-((2-amino-2-methylpropyl)carbamoyl)pyrazin-2-yl)-N,N-dimethyl-4H-thieno[3,2-b]pyrrole-2-carboxamide] here?
A: > 100 nM

Q: `Cc1c(-c2cncc(C(=O)NCCN)n2)[nH]c2ccc(OC(F)(F)F)cc12` [Example 60, N-(2-aminoethyl)-6-(3-methyl-5-(trifluoromethoxy)-1H-indol-2-yl)pyrazine-2-carboxamide] was tested. Which EC50 did it give?
A: 10 to 100 nM

Q: With `CC(C)(N)CNC(=O)c1cncc(-c2cc3cc(Cl)ncc3[nH]2)n1` [Example 39, N-(2-amino-2-methylpropyl)-6-(5-chloro-1H-pyrrolo[2,3-c]pyridin-2-yl)pyrazine-2-carboxamide] as the compound, how does the EC50 read?
A: > 100 nM

Q: `Cc1c(-c2cncc(C(=O)NCC(C)(C)N)n2)[nH]c2cc(S(F)(F)(F)(F)F)ccc12` [Example 9, N-(2-amino-2-methylpropyl)-6-(3-methyl-6-(pentafluoro-[…]^6-sulfaneyl)-1H-indol-2-yl)pyrazine-2-carboxamide] was tested. Which EC50 did it give?
A: < 10 nM

Q: With `Cc1c(-c2cncc(C(=O)NCC(N)C3CC3)n2)[nH]c2cc(Cl)c(F)cc12` (stereo not drawn) [Example 79, N-(2-amino-2-cyclopropylethyl)-6-(6-chloro-5-fluoro-3-methyl-1H-indol-2-yl)pyrazine-2-carboxamide] as the compound, how does the EC50 read?
A: 10 to 100 nM

Q: Which EC50 does the source give for `Cc1c(-c2cncc(C(=O)NCCCN)n2)[nH]c2ccc(OC(F)(F)F)cc12` [Example 63, N-(3-aminopropyl)-6-(3-methyl-5-(trifluoromethoxy)-1H-indol-2-yl)pyrazine-2-carboxamide] here?
A: 10 to 100 nM

Q: How did the EC50 turn out when `Cc1c(-c2cncc(C(=O)NC(C)(C)CN)n2)[nH]c2ccccc12` [Example 88, N-(1-amino-2-methylpropan-2-yl)-6-(3-methyl-1H-indol-2-yl)pyrazine-2-carboxamide] was run?
A: 10 to 100 nM

Q: Which EC50 does the source give for `Cc1c(-c2cncc(C(=O)N[C@H]3CC[C@H](N)CC3)n2)[nH]c2ccc(OC(F)(F)F)cc12` [Example 65, N-((1r,4r)-4-aminocyclohexyl)-6-(3-methyl-5-(trifluoromethoxy)-1H-indol-2-yl)pyrazine-2-carboxamide] here?
A: 10 to 100 nM

Q: How did the EC50 turn out when `Cc1c(-c2cncc(C(=O)NCC(C)(C)N)n2)[nH]c2cc(F)c(Cl)cc12` [Example 10, N-(2-amino-2-methylpropyl)-6-(5-chloro-6-fluoro-3-methyl-1H-indol-2-yl)pyrazine-2-carboxamide] was run?
A: < 10 nM

Q: How did the EC50 turn out when `Cc1ccc2[nH]c(-c3cncc(C(=O)NCC(C)(C)N)n3)cc2c1` [Example 26, N-(2-amino-2-methylpropyl)-6-(5-methyl-1H-indol-2-yl)pyrazine-2-carboxamide] was run?
A: 10 to 100 nM

Q: With `CC(C)(N)CNC(=O)c1cncc(-c2cc3c(Cl)nccc3[nH]2)n1` [Example 41, N-(2-amino-2-methylpropyl)-6-(4-chloro-1H-pyrrolo[3,2-c]pyridin-2-yl)pyrazine-2-carboxamide] as the compound, how does the EC50 read?
A: > 100 nM

Q: With `Cc1c(-c2cncc(C(=O)NCC(C)(C)O)n2)[nH]c2ccccc12` [Example 100, N-(2-hydroxy-2-methylpropyl)-6-(3-methyl-1H-indol-2-yl)pyrazine-2-carboxamide] as the compound, how does the EC50 read?
A: > 100 nM

Q: `CC(C)(N)CNC(=O)c1cncc(-c2cc3cc(Cl)c(F)cc3[nH]2)n1` [Example 17, N-(2-amino-2-methylpropyl)-6-(5-chloro-6-fluoro-1H-indol-2-yl)pyrazine-2-carboxamide] was tested. Which EC50 did it give?
A: 10 to 100 nM

Q: `Cc1c(-c2cncc(C(=O)NCC(C)(C)N)n2)[nH]c2cc(Cl)ccc12` [Example 7, N-(2-amino-2-methylpropyl)-6-(6-chloro-3-methyl-1H-indol-2-yl)pyrazine-2-carboxamide] was tested. Which EC50 did it give?
A: < 10 nM
